From ChEMBL document CHEMBL3044560, “Microwave-assisted synthesis and antimicrobial activity of some imidazo[2,1-b][1,3,4]thiadiazole derivatives” (2012)
Calls of active or inactive are those of the source. No cut-off for these calls is given here.

What was measured:
Staphylococcus aureus [1] = test: Antimicrobial activity against Staphylococcus aureus at 75 ug/ml after 24 hr by cup-plate method; assay type: functional
Candida albicans [2] = test: Antimicrobial activity against Candida albicans at 50 ug/ml after 72 hr by cup-plate method; assay type: functional; details: read-out: IZ
Klebsiella [3] = test: Antimicrobial activity against Klebsiella at 50 ug/ml after 24 hr by cup-plate method; assay type: functional
Candida albicans [4] = test: Antimicrobial activity against Candida albicans at 30 ug/ml after 72 hr by cup-plate method; assay type: functional; details: read-out: IZ
Candida albicans [5] = test: Antimicrobial activity against Candida albicans at 5 ug/ml after 72 hr by cup-plate method; assay type: functional; details: read-out: IZ
Candida albicans [6] = test: Antimicrobial activity against Candida albicans at 50 to 70 ug/ml after 72 hr by cup-plate method; assay type: functional, organism-based
Staphylococcus aureus [7] = test: Antimicrobial activity against Staphylococcus aureus at 10 ug/ml after 24 hr by cup-plate method; details: read-out: IZ
Klebsiella [8] = test: Antimicrobial activity against Klebsiella at 10 ug/ml after 24 hr by cup-plate method; assay type: functional; details: read-out: IZ

`O=[N+]([O-])c1ccc(Cc2nn3cc(-c4ccc(F)cc4)nc3s2)cc1` was tested. Which “inhibition zone (IZ)” value (Staphylococcus aureus [1]) did it give?
Its value is “inactive”.

And the zone of inhibition at 50 µg/mL (Candida albicans [2])?
The zone of inhibition at 50 µg/mL was 22 mm.

And the “inhibition zone (IZ)” value (Klebsiella [3])?
The value was “inactive”.

How did the zone of inhibition at 30 µg/mL (Candida albicans [4]) turn out when `OC(Cn1cncn1)(Cn1cncn1)c1ccc(F)cc1F` [FLUCONAZOLE] was run?
Its zone of inhibition at 30 µg/mL is 22 mm.

Which “inhibition zone (IZ)” value (Staphylococcus aureus [1]) does the source give for `O=[N+]([O-])c1ccc(Cc2nn3cc(-c4ccc(Br)cc4)nc3s2)cc1` here?
The value was “inactive”.

What about the zone of inhibition at 5 µg/mL (Candida albicans [5]) of the same compound?
The zone of inhibition at 5 µg/mL was 14 mm.

What about the “inhibition zone (IZ)” value (Candida albicans [6]) of the same compound?
The value was “inactive”.

`O=C(O)c1cn(C2CC2)c2cc(N3CCNCC3)c(F)cc2c1=O` [CIPROFLOXACIN] was tested. Which zone of inhibition at 10 µg/mL (Staphylococcus aureus [7]) did it give?
The zone of inhibition at 10 µg/mL was 28 mm.

And the zone of inhibition at 10 µg/mL (Klebsiella [8])?
Its zone of inhibition at 10 µg/mL is 28 mm.
